Data: US20100299778A1, “NUCLEOTIDE SEQUENCE ENCODING ARTEMISINIC ALDEHYDE DOUBLE BOND REDUCTASE, ARTEMISINIC ALDEHYDE DOUBLE BOND REDUCTASE AND USES THEREOF” (National Research Council of Canada, priority 2007, published 2010)
“Also recorded” adds a separate entry of the source.

Tests used:
[1] = target: T1, recombinant AaDBR2 (artemisinic aldehyde double bond reductase) (Artemisia annua, UniProt C5H429, A226G/L231G/N16K); assay: In vitro enzyme assays of recombinant AaDBR2 with potential substrates, GC/MS analysis; format: biochemical; conditions: for activity of AaDBR2 on the substance as substrate: tested as potential substrate, with NADPH, GC/MS
T1 construct: This ORF encodes a 415-amino acid protein with a predicted molecular mass of 45.6 kDa; made in house; host or cells: E. coli Rosetta 2(DE3)
T1 sequence (C5H429 other isoform, or with tags, fused parts or gaps N16K/A226G/L231G): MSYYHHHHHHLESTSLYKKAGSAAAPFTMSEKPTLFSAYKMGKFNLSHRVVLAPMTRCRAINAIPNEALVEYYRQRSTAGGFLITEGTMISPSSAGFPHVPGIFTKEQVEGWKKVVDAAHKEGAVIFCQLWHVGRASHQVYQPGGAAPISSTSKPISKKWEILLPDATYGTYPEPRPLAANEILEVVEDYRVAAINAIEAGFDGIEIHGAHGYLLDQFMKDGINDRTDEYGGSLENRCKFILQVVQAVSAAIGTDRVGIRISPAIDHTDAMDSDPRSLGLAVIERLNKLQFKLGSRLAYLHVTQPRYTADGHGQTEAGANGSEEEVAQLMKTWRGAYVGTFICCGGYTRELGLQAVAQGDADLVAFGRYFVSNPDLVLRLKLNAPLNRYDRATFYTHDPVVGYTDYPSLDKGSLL
Procedure: The purified recombinant His-tagged AaDBR2 protein was assayed with artemisinic aldehyde, followed by gas chromatography/mass spectrometry analysis. Enzyme reactions were initiated by adding the 0.4 mM artemisinic aldehyde to 300 μL reaction mixture containing 50 mM Tris-HCl (pH 8.0), 1 mM NADPH, 2 mM DTT and 2.0 μg of AaDBR2. Negative controls were carried out with boiled proteins, without NADPH. Reactions were allowed to proceed for 30 minutes at 30° C. with shaking, stopped by adding 15 μL acetic acid and extracted with 100 μL ethyl acetate. The ethyl acetate extracts were pooled and partially evaporated prior to GC-MS analysis. The reaction products were confirmed by comparing GC retention time and MS data with those of synthetic (11R)-dihydroartemisinic aldehyde. For quantification, octadecane was used as an internal standard.
(§1) For comparison of the catalytic properties of AaDBR2 against other substrates, reaction mixtures were pre-warmed to 30° C., and reactions were initiated by addition of AaDBR2. The pH optimum of the purified AaDBR2 was determined to be 7.5 in assay that included one of three 50 mM buffers (MES, HEPES, and Tris-HCl) adjusted to between pH 5.5 and 9.0 in 0.5-unit intervals and 0.5 mM artemisinic aldehyde and 0.48 μg of purified recombinant AaDBR2. Apparent kinetic parameters were determined under conditions that limited conversion to less than 10% as follows. Concentrations of artemisinic aldehyde (6-250 μM, 0.24 μg of AaDBR2, 2 min), 2-cyclohexen-1-one (80-10,000 μM, 0.48 μg of AaDBR2, 10 min), and (+)-carvone (20-5000 μM, 0.48 μg AaDBR2, 10 min) were varied in the presence of 1 mM NADPH. To assess cofactor specificity, concentrations of NADPH (10-640 μM, 0.48 μg of AaDBR2, 2 min) and NADH (0.2-13 mM, 1.9 μg of AaDBR2, 2 min) were varied in the presence of 0.5 mM artemisinic aldehyde. The ethyl acetate extracts from triplicate reaction mixtures were directly analyzed by GC/MS. Octadecane was used as an internal standard to quantify the products formed from the reactions using response factors determined using standards for each enzyme product. Km and kcat values were determined by nonlinear regression analysis using GraphPad™ software (GraphPad™ Software Inc., San Diego, Calif.).

[2] = target: T1, recombinant AaDBR2 (artemisinic aldehyde double bond reductase); assay: Apparent kinetic parameters of purified recombinant AaDBR2; format: biochemical
Procedure: as §1

Plasmodium falciparum = conditions: more active than artesunate; cited from earlier work
[3] = cofactor varied in the presence of 0.5 mM artemisinic aldehyde
[4] = substrate varied in the presence of 1 mM NADPH, 30° C.

Row | Structure (SMILES) | activity of AaDBR2 on the substance as substrate [1] | other results
1 | COc1cc(/C=C/C=O)ccc1O [coniferyl aldehyde] | No activity was detected | 
2 | NC(=O)C1=CN([C@@H]2O[C@H](COP(=O)(O)OP(=O)(O)OC[C@H]3O[C@@H](n4cnc5c(N)ncnc54)[C@H](O)[C@@H]3O)[C@@H](O)[C@H]2O)C=CC1 [NADH] |  | enzyme activity in the presence of the cofactor ([1]; preliminary experiments): active; Km [2, 3]: 770 µM; kcat [2, 3]: 1.3 s⁻¹
3 | CC(C)=C1CC[C@@H](C)CC1=O [(+)-pulegone] | No activity was detected | 
4 | NC(=O)C1=CN([C@@H]2O[C@H](COP(=O)(O)OP(=O)(O)OC[C@H]3O[C@@H](n4cnc5c(N)ncnc54)[C@H](OP(=O)(O)O)[C@@H]3O)[C@@H](O)[C@H]2O)C=CC1 [NADPH] |  | Km [2, 3]: 95 µM; kcat [2, 3]: 2.5 s⁻¹
5 | C=C1C(=O)O[C@@]23[C@H]1CC[C@@H](C)[C@@H]2CC[C@@]1(C)O[C@@H]31 [arteannuin B, Arteannuin B] | No activity was detected | 
6 | C=C(CO)[C@@H]1CC[C@@H](C)[C@@H]2CCC(C)=C[C@@H]21 [artemisinic alcohol, Artemisinic alcohol] | No activity was detected | 
7 | C=C1C(=O)O[C@@H]2O[C@@]3(C)CC[C@H]4[C@H](C)CC[C@@H]1[C@@]24OO3 [artemisitene] | No activity was detected | 
8 | C=C(C=O)[C@@H]1CC[C@@H](C)[C@@H]2CCC(C)=C[C@@H]21 [artemisinic aldehyde] | has activity | Km lower relative to 2-cyclohexen-1-one and (+)-carvone ([2]; Table 2 comparison): more than 30 fold; Km [2, 4]: 19 µM; kcat [2, 4]: 2.6 s⁻¹
9 | C=C(C(=O)O)[C@@H]1CC[C@@H](C)[C@@H]2CCC(C)=C[C@@H]21 [artemisinic acid] | No activity was detected | 
10 | C[C@H]1[C@H](N2CCS(=O)(=O)CC2)O[C@@H]2O[C@@]3(C)CC[C@H]4[C@H](C)CC[C@@H]1[C@@]24OO3 [Artemisone] |  | activity relative to artesunate (Plasmodium falciparum): 10-30 fold
11 | CCCCCC/C=C/C=O [2E-nonenal] | low activity; also recorded: No activity was detected | rate relative to the rate for artemisinic aldehyde ([1]; AaDBR2 substrate, FIG. 8): about 12%
12 | C=C(C)[C@H]1CC=C(C)C(=O)C1 [(+)-carvone, (+)-Carvone] | has activity | Km [2, 4]: 650 µM; kcat [2, 4]: 0.86 s⁻¹
13 | CC1=CC[C@@H]2C[C@H]1C2(C)C [(+)-α-pinene] | No activity was detected | 
14 | O=C1C=CCCC1 [2-cyclohexen-1-one] | has activity | 
15 | C=C1C(=O)CC2(C(C)C)CC12 (stereo not drawn) [sabinone, Sabinone] | No activity was detected | 
